Here are results for 25 compounds from patent publication US6476030B1, “Pyrazolo-triazine derivatives as ligands for GABA receptors” (Merck Sharp & Dohme Ltd., priority 1998, dated 2002).

Broadly, the melting point is the temperature of the solid-liquid transition. For `Cn1ncnc1COc1nn2c(-c3c(F)cccc3F)nncc2c1-c1ccccc1` [Example 10, 7-(2,6-Difluorophenyl)-2-(2-methyl-2H-[1,2,4]triazol-3-ylmethoxy)-3-phenylpyrazolo[1,5-d][1,2,4]triazine], the melting point was determined as 179 °C.

Turning to `CC(C)n1ncnc1COc1nn2c(-c3ccccc3F)nncc2c1-c1ccccc1F` [Example 74, 3,7-bis(2-Fluorophenyl)-2-(2-isopropyl-2H-[1,2,4]triazol-3-ylmethoxy)-pyrazolo[1,5-d][1,2,4]triazine], the melting point was 179 °C.

For `Fc1ccccc1-c1c(OCc2ncnn2CC(F)F)nn2c(-c3ccccc3F)nncc12` [Example 85, 2-[2-(2,2-Difluoroethyl)-2H-[1,2,4]triazol-3-ylmethoxy]-3,7-bis(2-fluorophenyl)pyrazolo[1,5-d][1,2,4]triazine], the melting point is 179 to 180 °C.

For `CCOc1cccnc1COc1nn2c(-c3ccccc3F)nncc2c1-c1ccccc1F` [Example 68, 2-(3-Ethoxypyridin-2-ylmethoxy)-3,7-bis(2-fluorophenyl)pyrazolo[1,5-d][1,2,4]triazine], the melting point came out at 77 °C.

Regarding `CCn1ncnc1COc1nn2c(-c3ccccc3F)nncc2c1C(C)(C)CC` [Example 40, 3-(1,1-Dimethylpropyl)-2-(2-ethyl-2H-[1,2,4]triazol-3-ylmethoxy)-7-(2-fluorophenyl)pyrazolo[1,5-d][1,2,4]triazine], the melting point was in the range of 89 to 92 °C.

On to `Cn1ncnc1COc1nn2c(-c3ccccc3F)nncc2c1-c1c(F)cccc1F` [Example 15, 3-(2,6-Difluorophenyl)-7-(2-fluorophenyl)-2-(2-methyl-2H-[1,2,4]triazol-3-ylmethoxy)pyrazolo[1,5-d][1,2,4]triazine], for which the melting point came to 196 °C.

`Cn1ncnc1COc1nn2c(-c3cccc(F)c3)nncc2c1-c1ccccc1F` [Example 51, 3-(2-Fluorophenyl)-7-(3-fluorophenyl)-2-(2-methyl-2H-[1,2,4]triazol-3-ylmethoxy)pyrazolo[1,5-d][1,2,4]triazine] came in with a melting point of 169 to 170 °C.

Consider `Cc1cccc(COc2nn3c(-c4ccccc4F)nncc3c2-c2ccccc2F)n1` [Example 62, 3,7-bis(2-Fluorophenyl)-2-(6-methylpyridin-2-ylmethoxy)pyrazolo[1,5-d][1,2,4]triazine], for which the melting point worked out at 197 °C.

`CCn1ncnc1COc1nn2c(-c3ccc(F)cc3)nncc2c1-c1ccccc1F` [Example 47, 2-(2-Ethyl-2H-[1,2,4]triazol-3-ylmethoxy)-3-(2-fluorophenyl)-7-(4-fluorophenyl)pyrazolo[1,5-d][1,2,4]triazine] came in with a melting point of 179 °C.

Compound `Cn1ncnc1COc1nn2c(-c3cccnc3)nncc2c1-c1ccccc1F` [Example 45, 3-(2-Fluorophenyl)-2-(2-methyl-2H-[1,2,4]triazol-3-ylmethoxy)-7-(pyridin-3-yl)pyrazolo[1,5-d][1,2,4]triazine] gave a melting point of 164 to 166 °C.

Consider `CCn1ncnc1COc1nn2c(-c3ccccc3F)nncc2c1-c1ccccc1` [Example 5, 2-(2-Ethyl-2H-[1,2,4]triazol-3-ylmethoxy)-7-(2-fluorophenyl)-3-phenylpyrazolo[1,5-d][1,2,4]triazine], for which the melting point lay within 171 to 173 °C.

For `CCn1ncnc1COc1nn2c(-c3ccc(F)cc3F)nncc2c1C(C)(C)C` [Example 57, 7-(2,4-Difluorophenyl)-3-(1,1-dimethylethyl)-2-(2-ethyl-2H-[1,2,4]triazol-3-ylmethoxy)pyrazolo[1,5-d][1,2,4]triazine], the melting point turned out to be 145 °C.

On to `Cn1nncc1COc1nn2c(-c3ccccc3F)nncc2c1-c1ccccc1F` [Example 60, 3,7-bis(2-Fluorophenyl)-2-(3-methyl-3H-[1,2,3]triazol-4-ylmethoxy)pyrazolo[1,5-d][1,2,4]triazine], for which the melting point was 188 °C.

As for `CCC(C)(C)c1c(OCc2ncnn2C)nn2c(-c3c(F)ccc(F)c3F)nncc12` [Example 43, 3-(1,1-Dimethylpropyl)-2-(2-methyl-2H-[1,2,4]triazol-3-ylmethoxy)-7-(2,3,6-trifluorophenyl)pyrazolo[1,5-d][1,2,4]triazine], the melting point fell in the range of 122 to 125 °C.

In the case of `Cn1ncnc1COc1nn2c(-c3ccccc3Cl)nncc2c1-c1ccccc1F` [Example 88, 7-(2-Chlorophenyl)-3-(2-fluorophenyl)-2-(2-methyl-2H-[1,2,4]triazol-3-ylmethoxy)pyrazolo[1,5-d][1,2,4]triazine], the melting point is 155 to 157 °C.

`Fc1ccccc1-c1c(OCc2cccnn2)nn2c(-c3ccccc3F)nncc12` [Example 76, 3,7-bis(2-Fluorophenyl)-2-(pyridazin-3-ylmethoxy)pyrazolo[1,5-d][1,2,4]triazine] returned a melting point of 210 °C.

As to `CCn1ncnc1COc1nn2c(-c3ccccc3F)nncc2c1-c1ccccc1F` [Example 58, 2-(2-Ethyl-2H-[1,2,4]triazol-3-ylmethoxy)-3,7-bis(2-fluorophenyl)-pyrazolo[1,5-d][1,2,4]triazine], the melting point was 164 °C.

`Cn1ncnc1COc1nn2c(-c3c(F)cccc3F)nncc2c1-c1ccccc1F` [Example 49, 7-(2,6-Difluorophenyl)-3-(2-fluorophenyl)-2-(2-methyl-2H-[1,2,4]triazol-3-ylmethoxy)pyrazolo[1,5-d][1,2,4]triazine] showed a melting point of 163 °C.

The compound `Cn1ncnc1COc1nn2c(-c3ccccc3F)nncc2c1Br` [Example 17, 3-Bromo-7-(2-fluorophenyl)-2-(2-methyl-2H-[1,2,4]triazol-3-ylmethoxy)pyrazolo[1,5-d][1,2,4]triazine] displayed a melting point of 215 to 219 °C.

The compound `Fc1ccccc1-c1c(OCc2cnc3ccccc3n2)nn2c(-c3ccccc3F)nncc12` [Example 79, 3,7-bis(2-Fluorophenyl)-2-(quinoxalin-2-ylmethoxy)pyrazolo[1,5-d][1,2,4]triazine] yielded a melting point of 209 °C.

Take `Cc1cnc(COc2nn3c(-c4ccccc4F)nncc3c2-c2ccccc2F)s1` [Example 72, 3,7-bis(2-Fluorophenyl)-2-(5-methylthiazol-2-ylmethoxy)pyrazolo[1,5-d][1,2,4]triazine]: the melting point came out at 154 °C.

In the case of `CCCn1ncnc1COc1nn2c(-c3ccc(F)cc3)nncc2c1C(C)(C)C` [Example 39, 3-(1,1-Dimethylethyl)-7-(4-fluorophenyl)-2-(2-propyl-2H-[1,2,4]triazol-3-ylmethoxy)pyrazolo[1,5-d][1,2,4]triazine], the melting point was determined as 154 °C.

Turning to `Cn1ncnc1COc1nn2c(-c3cccs3)nncc2c1-c1ccccc1` [Example 11, 2-(2-Methyl-2H-[1,2,4]triazol-3-ylmethoxy)-3-phenyl-7-(thien-2-yl) pyrazolo[1,5-d][1,2,4]triazine], the melting point was 209 °C.

Take `Cn1ncnc1COc1nn2c(-c3ccccc3F)nncc2c1-c1cccc(-c2cccnc2)c1` [Example 95, 7-(2-Fluorophenyl)-2-(2-methyl-2H-[1,2,4]triazol-3-ylmethoxy)-3-[3-(pyridin-3-yl)phenyl]pyrazolo[1,5-d][1,2,4]triazine]: the melting point was 157 to 163 °C.

`Cn1ncnc1COc1nn2c(-c3ccc(F)cc3)nncc2c1C(C)(C)C` [Example 37, 3-(1,1-Dimethylethyl)-7-(4-fluorophenyl)-2-(2-methyl-2H-[1,2,4]triazol-3-ylmethoxy)pyrazolo[1,5-d][1,2,4]triazine] had a melting point of 197 °C.
